Calls of active or inactive are those of the source. The rule behind the calls is not given here.
Columns and labels:
[1] = target: T1, Protein cereblon/Tyrosine-protein phosphatase non-receptor type 1 (Homo sapiens, UniProt P18031+Q96SW2); experiment: PROTAC activity at PTP1B/CRBN in insulin treated human HepG2 cells assessed as protein degradation at 125 nM incubated for 48 hrs by Western blot analysis relative to control; format: cell-based
Target sequence in this assay (P18031 whole entry, looked up): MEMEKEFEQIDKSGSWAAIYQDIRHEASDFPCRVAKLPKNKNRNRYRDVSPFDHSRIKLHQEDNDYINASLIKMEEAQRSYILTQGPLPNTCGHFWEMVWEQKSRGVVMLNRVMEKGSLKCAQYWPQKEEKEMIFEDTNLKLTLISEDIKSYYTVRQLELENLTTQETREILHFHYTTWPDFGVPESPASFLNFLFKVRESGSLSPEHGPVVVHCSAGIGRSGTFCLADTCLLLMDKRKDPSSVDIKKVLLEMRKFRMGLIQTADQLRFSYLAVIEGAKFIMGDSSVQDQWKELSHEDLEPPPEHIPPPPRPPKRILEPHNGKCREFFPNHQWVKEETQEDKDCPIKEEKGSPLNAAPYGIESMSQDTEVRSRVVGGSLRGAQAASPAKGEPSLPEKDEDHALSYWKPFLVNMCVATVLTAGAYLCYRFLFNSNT
Target sequence in this assay (Q96SW2 whole entry, looked up): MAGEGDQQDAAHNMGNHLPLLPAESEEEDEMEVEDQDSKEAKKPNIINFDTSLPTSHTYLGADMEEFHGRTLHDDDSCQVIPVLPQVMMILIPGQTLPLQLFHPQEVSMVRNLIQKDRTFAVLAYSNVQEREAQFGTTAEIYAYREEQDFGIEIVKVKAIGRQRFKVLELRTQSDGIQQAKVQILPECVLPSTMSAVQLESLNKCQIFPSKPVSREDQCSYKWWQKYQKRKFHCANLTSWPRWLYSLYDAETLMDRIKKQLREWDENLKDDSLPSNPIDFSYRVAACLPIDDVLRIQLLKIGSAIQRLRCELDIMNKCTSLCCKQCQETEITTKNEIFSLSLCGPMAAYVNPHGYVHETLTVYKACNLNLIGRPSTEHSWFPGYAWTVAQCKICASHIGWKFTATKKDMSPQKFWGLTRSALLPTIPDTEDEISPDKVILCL

[2] = target: T1, Protein cereblon/Tyrosine-protein phosphatase non-receptor type 1; experiment: PROTAC activity at PTP1B/CRBN in insulin treated human HepG2 cells assessed as protein degradation at 1 nM incubated for 48 hrs by Western blot analysis relative to control; format: cell-based
Target sequence in this assay (P18031 whole entry, looked up): as the sequence (P18031 whole entry, looked up) above
Target sequence in this assay (Q96SW2 whole entry, looked up): as the sequence (Q96SW2 whole entry, looked up) above

[3] = target: T1, Protein cereblon/Tyrosine-protein phosphatase non-receptor type 1; experiment: PROTAC activity at PTP1B/CRBN in insulin treated human HepG2 cells assessed as protein degradation at 25 nM incubated for 48 hrs by Western blot analysis relative to control; format: cell-based
Target sequence in this assay (P18031 whole entry, looked up): as the sequence (P18031 whole entry, looked up) above
Target sequence in this assay (Q96SW2 whole entry, looked up): as the sequence (Q96SW2 whole entry, looked up) above

[4] = target: T1, Protein cereblon/Tyrosine-protein phosphatase non-receptor type 1; experiment: PROTAC activity at PTP1B/CRBN in insulin treated human HepG2 cells assessed as protein degradation at 25 nM incubated for 72 hrs by Western blot analysis relative to control; format: cell-based
Target sequence in this assay (P18031 whole entry, looked up): as the sequence (P18031 whole entry, looked up) above
Target sequence in this assay (Q96SW2 whole entry, looked up): as the sequence (Q96SW2 whole entry, looked up) above

[5] = target: T1, Protein cereblon/Tyrosine-protein phosphatase non-receptor type 1; experiment: PROTAC activity at PTP1B/CRBN in insulin treated human HepG2 cells assessed as protein degradation at 125 nM incubated for 72 hrs by Western blot analysis relative to control; format: cell-based
Target sequence in this assay (P18031 whole entry, looked up): as the sequence (P18031 whole entry, looked up) above
Target sequence in this assay (Q96SW2 whole entry, looked up): as the sequence (Q96SW2 whole entry, looked up) above

[6] = target: T1, Protein cereblon/Tyrosine-protein phosphatase non-receptor type 1; experiment: PROTAC activity at PTP1B/CRBN in insulin treated human HepG2 cells assessed as protein degradation incubated for 72 hrs by Western blot analysis; format: cell-based
[7] = target: T1, Protein cereblon/Tyrosine-protein phosphatase non-receptor type 1; experiment: PROTAC activity at PTP1B/CRBN in insulin treated human HepG2 cells assessed as protein degradation at 1250 nM incubated for 72 hrs by Western blot analysis relative to control; format: cell-based
Target sequence in this assay (P18031 whole entry, looked up): as the sequence (P18031 whole entry, looked up) above
Target sequence in this assay (Q96SW2 whole entry, looked up): as the sequence (Q96SW2 whole entry, looked up) above

[8] = target: T1, Protein cereblon/Tyrosine-protein phosphatase non-receptor type 1; experiment: PROTAC activity at PTP1B/CRBN in insulin treated human HepG2 cells assessed as protein degradation at 625 nM incubated for 72 hrs by Western blot analysis relative to control; format: cell-based
HepG2 [9] = experiment: Hypoglycemic activity in human HepG2 cells assessed as upregulation of IRS-1 expression at 250 to 500 nM incubated for 24 hrs by Western blot analysis; format: functional, cell-based; conditions: dose 250-500 nM
Mus musculus [10] = experiment: Anti-diabetic activity in KM mouse assessed as reduction in area under the curve of blood glucose measured for 0 to 120 mins at 20 mg/kg single dose by oral glucose tolerance test (oGTT); format: functional; design: scale not given: the % may be the effect or the level left; conditions: time 0-120 min
[11] = target: Protein cereblon/Tyrosine-protein phosphatase non-receptor type 22 (Homo sapiens) (UniProt Q9Y2R2+Q96SW2); experiment: PROTAC activity at LYP/CRBN in insulin treated human HepG2 cells assessed as protein degradation at 250 to 500 nM incubated for 24 hrs by Western blot analysis; format: cell-based; conditions: dose 250-500 nM
Sequence of Protein cereblon/Tyrosine-protein phosphatase non-receptor type 22 (Homo sapiens) (Q96SW2 whole entry, looked up): as above
Sequence of Protein cereblon/Tyrosine-protein phosphatase non-receptor type 22 (Homo sapiens) (Q9Y2R2 whole entry, looked up): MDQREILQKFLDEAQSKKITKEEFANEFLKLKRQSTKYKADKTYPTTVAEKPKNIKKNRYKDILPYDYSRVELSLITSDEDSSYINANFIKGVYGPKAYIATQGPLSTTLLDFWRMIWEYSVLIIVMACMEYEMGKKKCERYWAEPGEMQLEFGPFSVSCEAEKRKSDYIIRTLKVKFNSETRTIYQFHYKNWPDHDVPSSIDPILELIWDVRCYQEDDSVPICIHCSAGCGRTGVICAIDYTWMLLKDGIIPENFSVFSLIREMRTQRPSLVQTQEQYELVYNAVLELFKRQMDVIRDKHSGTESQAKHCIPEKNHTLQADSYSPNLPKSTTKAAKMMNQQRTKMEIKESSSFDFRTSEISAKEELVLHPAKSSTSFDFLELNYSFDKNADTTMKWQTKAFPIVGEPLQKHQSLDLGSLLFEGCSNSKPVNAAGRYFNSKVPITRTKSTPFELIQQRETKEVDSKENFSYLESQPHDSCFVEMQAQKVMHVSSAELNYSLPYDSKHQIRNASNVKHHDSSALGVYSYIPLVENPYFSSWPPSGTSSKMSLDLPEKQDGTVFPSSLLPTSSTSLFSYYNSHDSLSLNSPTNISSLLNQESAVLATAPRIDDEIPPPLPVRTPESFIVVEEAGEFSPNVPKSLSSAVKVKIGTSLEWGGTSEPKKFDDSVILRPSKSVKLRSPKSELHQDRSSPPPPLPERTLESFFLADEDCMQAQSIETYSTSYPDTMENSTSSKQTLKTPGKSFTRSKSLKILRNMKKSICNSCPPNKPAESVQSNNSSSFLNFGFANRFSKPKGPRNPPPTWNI

[12] = target: T1, Protein cereblon/Tyrosine-protein phosphatase non-receptor type 1; experiment: PROTAC activity at PTP1B/CRBN in insulin treated human HepG2 cells assessed as protein degradation at 5 nM incubated for 48 hrs by Western blot analysis relative to control; format: cell-based
Mus musculus [13] = experiment: Anti-diabetic activity in KM mouse assessed as reduction in area under the curve of blood glucose measured for 0 to 120 mins at 40 mg/kg single dose by oral glucose tolerance test (oGTT); format: functional; design: scale not given: the % may be the effect or the level left; conditions: time 0-120 min
[14] = target: T1, Protein cereblon/Tyrosine-protein phosphatase non-receptor type 1; experiment: PROTAC activity at PTP1B/CRBN in insulin treated human HepG2 cells assessed as protein degradation at 1 nM incubated for 72 hrs by Western blot analysis relative to control; format: cell-based
[15] = target: T1, Protein cereblon/Tyrosine-protein phosphatase non-receptor type 1; experiment: PROTAC activity at PTP1B/CRBN in insulin treated human HepG2 cells assessed as protein degradation at 100 nM incubated for 24 hrs in presence of […] by Western blot analysis; format: cell-based
Mus musculus [16] = experiment: Anti-diabetic activity in KM mouse assessed as reduction in blood glucose measured for 0 to 120 mins at 40 mg/kg single dose by oral glucose tolerance test (oGTT) relative to control; format: functional; conditions: time 0-120 min
HepG2 [17] = experiment: Hypoglycemic activity in human HepG2 cells assessed as upregulation of PI3K expression at 250 to 500 nM incubated for 24 hrs by Western blot analysis; format: functional, cell-based; conditions: dose 250-500 nM
[18] = target: Protein cereblon/Tyrosine-protein phosphatase non-receptor type 11 (Homo sapiens) (UniProt Q06124+Q96SW2); experiment: PROTAC activity at SHP2/CRBN in insulin treated human HepG2 cells assessed as protein degradation at 250 to 500 nM incubated for 24 hrs by Western blot analysis; format: cell-based; conditions: dose 250-500 nM
[19] = target: T1, Protein cereblon/Tyrosine-protein phosphatase non-receptor type 1; experiment: PROTAC activity at PTP1B/CRBN in insulin treated human HepG2 cells assessed as protein degradation at 100 nM incubated for 24 hrs in presence of pomalidomide by Western blot analysis; format: cell-based
[20] = target: Protein cereblon/Receptor-type tyrosine-protein phosphatase C (Homo sapiens) (UniProt P08575+Q96SW2); experiment: PROTAC activity at CD45/CRBN in insulin treated human HepG2 cells assessed as protein degradation at 250 to 500 nM incubated for 24 hrs by Western blot analysis; format: cell-based; conditions: dose 250-500 nM
Sequence of Protein cereblon/Receptor-type tyrosine-protein phosphatase C (Homo sapiens) (P08575 whole entry, looked up): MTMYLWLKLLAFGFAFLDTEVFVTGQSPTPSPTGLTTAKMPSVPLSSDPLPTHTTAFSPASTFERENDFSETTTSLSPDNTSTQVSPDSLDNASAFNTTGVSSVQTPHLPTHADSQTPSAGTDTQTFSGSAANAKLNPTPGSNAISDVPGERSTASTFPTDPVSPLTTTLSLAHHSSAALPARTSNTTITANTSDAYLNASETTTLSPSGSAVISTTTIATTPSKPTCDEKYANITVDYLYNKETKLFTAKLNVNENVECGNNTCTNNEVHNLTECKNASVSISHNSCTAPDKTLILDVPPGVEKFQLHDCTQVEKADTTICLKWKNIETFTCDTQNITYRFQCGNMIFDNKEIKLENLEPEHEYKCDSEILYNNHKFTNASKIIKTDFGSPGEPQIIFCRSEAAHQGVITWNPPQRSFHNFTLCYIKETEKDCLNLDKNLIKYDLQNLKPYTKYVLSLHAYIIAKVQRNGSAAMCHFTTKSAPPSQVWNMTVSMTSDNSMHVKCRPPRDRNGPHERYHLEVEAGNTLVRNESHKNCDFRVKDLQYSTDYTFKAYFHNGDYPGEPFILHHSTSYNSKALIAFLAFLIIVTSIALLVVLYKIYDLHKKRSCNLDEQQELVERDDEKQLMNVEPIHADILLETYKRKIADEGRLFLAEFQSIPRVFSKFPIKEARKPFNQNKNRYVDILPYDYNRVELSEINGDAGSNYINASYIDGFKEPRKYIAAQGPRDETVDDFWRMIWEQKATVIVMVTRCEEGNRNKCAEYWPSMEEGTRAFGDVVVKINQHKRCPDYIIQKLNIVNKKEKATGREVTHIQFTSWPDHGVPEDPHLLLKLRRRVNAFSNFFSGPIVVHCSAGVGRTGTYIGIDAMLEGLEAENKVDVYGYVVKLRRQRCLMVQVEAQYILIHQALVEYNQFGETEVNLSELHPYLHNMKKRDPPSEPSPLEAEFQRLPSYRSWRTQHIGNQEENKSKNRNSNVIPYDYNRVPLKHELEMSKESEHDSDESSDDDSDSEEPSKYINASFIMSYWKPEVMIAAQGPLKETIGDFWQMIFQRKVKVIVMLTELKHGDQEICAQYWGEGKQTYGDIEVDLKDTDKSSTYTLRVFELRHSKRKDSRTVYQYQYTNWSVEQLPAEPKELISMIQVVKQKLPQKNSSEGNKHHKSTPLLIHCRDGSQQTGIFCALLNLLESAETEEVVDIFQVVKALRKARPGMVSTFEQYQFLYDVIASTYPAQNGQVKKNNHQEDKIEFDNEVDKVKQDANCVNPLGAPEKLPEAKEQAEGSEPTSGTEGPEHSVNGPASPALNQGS
Sequence of Protein cereblon/Receptor-type tyrosine-protein phosphatase C (Homo sapiens) (Q96SW2 whole entry, looked up): as the sequence (Q96SW2 whole entry, looked up) above

[21] = target: T1, Protein cereblon/Tyrosine-protein phosphatase non-receptor type 1; experiment: PROTAC activity at PTP1B/CRBN in insulin treated human HepG2 cells assessed as protein degradation at 250 to 500 nM incubated for 24 hrs by Western blot analysis; format: cell-based; conditions: dose 250-500 nM
[22] = target: T1, Protein cereblon/Tyrosine-protein phosphatase non-receptor type 1; experiment: PROTAC activity at PTP1B/CRBN in insulin treated human HepG2 cells assessed as protein degradation at 100 nM incubated for 24 hrs in presence of MG-132 by Western blot analysis; format: cell-based
HepG2 [23] = experiment: Hypoglycemic activity in human HepG2 cells assessed as upregulation of Akt phosphorylation at 250 to 500 nM incubated for 24 hrs by Western blot analysis; format: functional, cell-based; conditions: dose 250-500 nM
[24] = target: T1, Protein cereblon/Tyrosine-protein phosphatase non-receptor type 1; experiment: PROTAC activity at PTP1B/CRBN in insulin treated human HepG2 cells assessed as protein degradation at 5000 nM incubated for 48 hrs by Western blot analysis relative to control; format: cell-based
[25] = target: T1, Protein cereblon/Tyrosine-protein phosphatase non-receptor type 1; experiment: PROTAC activity at PTP1B/CRBN in insulin treated human HepG2 cells assessed as protein degradation at 5 nM incubated for 72 hrs by Western blot analysis relative to control; format: cell-based
[26] = target: T1, Protein cereblon/Tyrosine-protein phosphatase non-receptor type 1; experiment: PROTAC activity at PTP1B/CRBN in insulin treated human HepG2 cells assessed as protein degradation incubated for 48 hrs by Western blot analysis; format: cell-based
[27] = target: T1, Protein cereblon/Tyrosine-protein phosphatase non-receptor type 1; experiment: PROTAC activity at PTP1B/CRBN in insulin treated human HepG2 cells assessed as protein degradation at 625 nM incubated for 48 hrs by Western blot analysis relative to control; format: cell-based
[28] = target: T1, Protein cereblon/Tyrosine-protein phosphatase non-receptor type 1; experiment: PROTAC activity at PTP1B/CRBN in insulin treated human HepG2 cells assessed as protein degradation at 1250 nM incubated for 48 hrs by Western blot analysis relative to control; format: cell-based
[29] = target: Protein cereblon/Tyrosine-protein phosphatase non-receptor type 6 (Homo sapiens) (UniProt P29350+Q96SW2); experiment: PROTAC activity at SHP1/CRBN in insulin treated human HepG2 cells assessed as protein degradation at 250 to 500 nM incubated for 24 hrs by Western blot analysis; format: cell-based; conditions: dose 250-500 nM
[30] = target: T1, Protein cereblon/Tyrosine-protein phosphatase non-receptor type 1; experiment: PROTAC activity at PTP1B/CRBN in insulin treated human HepG2 cells assessed as protein degradation half life at 500 nM by Western blot analysis; format: cell-based
[31] = target: T1, Protein cereblon/Tyrosine-protein phosphatase non-receptor type 1; experiment: PROTAC activity at PTP1B/CRBN in insulin treated human HepG2 cells assessed as protein degradation at 50 nM incubated for 48 hrs by Western blot analysis relative to control; format: cell-based
[32] = target: T1, Protein cereblon/Tyrosine-protein phosphatase non-receptor type 1; experiment: PROTAC activity at PTP1B/CRBN in insulin treated human HepG2 cells assessed as protein degradation at 500 nM incubated for 48 hrs by Western blot analysis relative to control; format: cell-based
Mus musculus [33] = experiment: Anti-diabetic activity in KM mouse assessed as reduction in area under the curve of blood glucose measured for 0 to 120 mins at 10 mg/kg single dose by oral glucose tolerance test (oGTT); format: functional; design: scale not given: the % may be the effect or the level left; conditions: time 0-120 min

SMILES | Activity [1] [%] | Activity [2] [%] | Activity [3] [%] | Activity [4] [%] | Activity [5] [%] | Activity [6] | DC50 [6] [nM] | Activity [7] [%] | Activity [8] [%] | Activity [12] [%] | Activity [14] [%] | inhibition in vivo at 40 mg/kg (Mus musculus [16]) [%] | Activity [24] [%] | Activity [25] [%] | Activity [26] | DC50 [26] [nM] | Activity [27] [%] | Activity [28] [%] | Activity [31] [%] | Activity [32] [%] | also measured
CC1(C)CC[C@]2(C(=O)NCCCCCCOCCOCCOCCOCCCCCC(=O)Nc3cccc4c3C(=O)N(C3CCC(=O)NC3=O)C4=O)CC[C@]3(C)C(=CC[C@@H]4[C@@]5(C)CC[C@H](O)C(C)(C)[C@@H]5CC[C@]43C)[C@@H]2C1 (stereo not given in full) | 46 | 8 | 51 | 58 | 58 | Dose-Dependent Effect | 50 | 48 | 43 | 51 | < 5 | 29 | 20 | 40 | Dose-Dependent Effect | 200 | 43 | 71 | 20 | 27 | Activity (HepG2 [9]): Active; Activity (Mus musculus [10]): 14.8%; Activity [11]: inactive; Activity (Mus musculus [13]): 21.8%; Activity [15]: inactive; Activity (HepG2 [17]): Active; Activity [18]: inactive; Activity [19]: Active; Activity [20]: inactive; Activity [21]: 100%; Activity [22]: inactive; Activity (HepG2 [23]): Active; Activity [29]: inactive; T1/2 [30]: 4 h; Activity (Mus musculus [33]): 8.6%
C[C@H]1[C@H](C)CC[C@]2(C(=O)NCCCCCCOCCOCCOCC(=O)Nc3cccc4c3C(=O)N(C3CCC(=O)NC3=O)C4=O)CC[C@]3(C)C(=CC[C@@H]4[C@@]5(C)CC[C@H](O)C(C)(C)[C@@H]5CC[C@]43C)[C@H]12 (stereo not given in full) | 17 | 8 | 33 | 50 | 55 | Dose-Dependent Effect | 40 | 56 | 49 | 83 | 33 | 18.3 | < 5 | 57 | Dose-Dependent Effect | 250 | 21 | 77 | 46 | 53 | –
C[C@H]1[C@H](C)CC[C@]2(C(=O)NCCCOCCOCCOCCCNc3cccc4c3C(=O)N(C3CCC(=O)NC3=O)C4=O)CC[C@]3(C)C(=CC[C@@H]4[C@@]5(C)CC[C@H](O)C(C)(C)[C@@H]5CC[C@]43C)[C@H]12 (stereo not given in full) | – | – | – | – | – | – | – | – | – | 37 | – | 15.3 | 36 | – | – | – | – | – | 51 | 29 | –
